# Marks after values point to notes of the source that are not given here.
# Tested on: Stagonospora nodorum (also known as Septoria nodorum)
# Experiment: Test B: preventive spray on wheat seedlings, Stagonospora nodorum (wheat glume blotch), visual disease rating
# Type: in vivo
# Details: 100 = 100% disease control, 0 = no control, unmarked values
# Source text: (§1) General protocol for preparing test suspensions for Tests A-E: the test compounds were first dissolved in acetone in an amount equal to 3% of the final volume and then suspended at the desired concentration (in ppm) in acetone and purified water (50/50 mix by volume) containing 250 ppm of the surfactant Trem® 014 (polyhydric alcohol esters). The resulting test suspensions were then used in Tests A-E. Compounds were sprayed with either a 40 ppm or 10 ppm (*) test suspension to the point of run-off on the test plants which is the equivalent of a rate of 160 g ai/ha or 40 g ai/ha, respectively.
# The test suspension was sprayed to the point of run-off on wheat seedlings. The following day the seedlings were inoculated with a spore suspension of Stagonospora nodorum (also known as Septoria nodorum; the causal agent of wheat glume blotch) and incubated in a saturated atmosphere at 20° C. for 48 h, and then moved to a growth chamber at 20° C. for 6 days, after which time visual disease ratings were made.
# (§2) Results for Tests A-E are given in Table A. In the Table, a rating of 100 indicates 100% disease control and a rating of 0 indicates no disease control (relative to the controls). A dash (-) indicates no test results.
row,SMILES,Test B disease control rating [%]
1,CCOC(=O)C1(C)CC(c2ccc(-c3ccccc3NC(=O)c3ncccc3C(F)(F)F)cn2)=NO1 (racemic) [compound 144],0
2,CCOC(=O)C1CC(c2ccc(-c3ccccc3NC(=O)c3ncccc3C(F)(F)F)cn2)=NO1 (racemic) [compound 145],0
3,CC1(C(=O)O)CC(c2ccc(-c3ccccc3NC(=O)c3ncccc3C(F)(F)F)cn2)=NO1 (racemic) [compound 146],0
4,O=C(NCCc1ncc(-n2ccc(Br)n2)cn1)c1ncccc1C(F)(F)F [Compound 179],0
5,O=C(NCCc1ncc(-n2cc(Br)cn2)cn1)c1ncccc1C(F)(F)F [Compound 180],0
6,Cc1cnn(-c2cnc(CCNC(=O)c3ncccc3C(F)(F)F)nc2)c1 [Compound 182],0
7,O=C(Nc1ccccc1-c1ccc(-n2cccn2)nc1)c1ncccc1C(F)(F)F [compound 12],100
8,O=C(Nc1ccccc1-c1ccc(-n2cc(Br)cn2)nc1)c1ncccc1C(F)(F)F [compound 14],100
9,Cn1cc(C(=O)Nc2ccccc2-c2ccc(-n3cccn3)nc2)c(C(F)F)n1 [compound 15],99
10,COc1cccc(-c2cnn(-c3ccc(-c4ccccc4NC(=O)c4ncccc4C(F)(F)F)cn3)c2)c1 [compound 16],100
11,COc1cccc(C2CC(c3ccc(-c4ccccc4NC(=O)c4cn(C)nc4C(F)F)cn3)=NO2)c1 (centres unmarked) [compound 102],99
12,CC1=C(C(=O)Nc2ccccc2-c2cnc(-n3ccc(C(F)(F)F)n3)c(F)c2)SCCO1 [compound 113],0

# Same assay, conditions: values marked with asterisk (*), meaning not given
row,SMILES,Test B disease control rating
1,Cc1ccn(-c2cnc(CCNC(=O)c3ncccc3C(F)(F)F)nc2)n1 [Compound 178],3* %
2,O=C(NCCc1ncc(-n2ccc(Cl)n2)cn1)c1ncccc1C(F)(F)F [Compound 181],64* %

# Tested on: Septoria tritici
# Experiment: Test C: preventive spray on wheat seedlings, Septoria tritici (wheat leaf blotch), visual disease rating
# Type: in vivo
# Details: 100 = 100% disease control, 0 = no control, unmarked values
# Source text: as §1
# (§3) The test suspension was sprayed to the point of run-off on wheat seedlings. The following day the seedlings were inoculated with a spore suspension of Septoria tritici (the causal agent of wheat leaf blotch) and incubated in a saturated atmosphere at 24° C. for 48 h, and then moved to a growth chamber at 20° C. for 21 days, after which time visual disease ratings were made.
# as §2
row,SMILES,Test C disease control rating [%]
1,CCOC(=O)C1(C)CC(c2ccc(-c3ccccc3NC(=O)c3ncccc3C(F)(F)F)cn2)=NO1 (racemic) [compound 144],81
2,CCOC(=O)C1CC(c2ccc(-c3ccccc3NC(=O)c3ncccc3C(F)(F)F)cn2)=NO1 (racemic) [compound 145],26
3,CC1(C(=O)O)CC(c2ccc(-c3ccccc3NC(=O)c3ncccc3C(F)(F)F)cn2)=NO1 (racemic) [compound 146],1
4,O=C(NCCc1ncc(-n2ccc(C(F)(F)F)n2)cn1)c1ccccc1C(F)(F)F [Compound 177],91
5,O=C(Nc1ccccc1-c1ccc(-n2cccn2)nc1)c1ncccc1C(F)(F)F [compound 12],100
6,O=C(Nc1ccccc1-c1ccc(-n2cc(Br)cn2)nc1)c1ncccc1C(F)(F)F [compound 14],100
7,Cn1cc(C(=O)Nc2ccccc2-c2ccc(-n3cccn3)nc2)c(C(F)F)n1 [compound 15],100
8,COc1cccc(-c2cnn(-c3ccc(-c4ccccc4NC(=O)c4ncccc4C(F)(F)F)cn3)c2)c1 [compound 16],100
9,COc1cccc(C2CC(c3ccc(-c4ccccc4NC(=O)c4cn(C)nc4C(F)F)cn3)=NO2)c1 (centres unmarked) [compound 102],97
10,CCOC(=O)C1(C)CC(c2ccc(-c3ccccc3NC(=O)c3cn(C)nc3C(F)F)cn2)=NO1 (centres unmarked) [compound 109],66
11,CCOC(=O)C1CC(c2ccc(-c3ccccc3NC(=O)c3cn(C)nc3C(F)F)cn2)=NO1 (centres unmarked) [compound 110],22
12,CC1=C(C(=O)Nc2ccccc2-c2cnc(-n3ccc(C(F)(F)F)n3)c(F)c2)SCCO1 [compound 113],77

# Same assay, conditions: values marked with asterisk (*), meaning not given
row,SMILES,Test C disease control rating
1,Cc1ccn(-c2cnc(CCNC(=O)c3ncccc3C(F)(F)F)nc2)n1 [Compound 178],0* %
2,O=C(NCCc1ncc(-n2ccc(Br)n2)cn1)c1ncccc1C(F)(F)F [Compound 179],5* %
3,O=C(NCCc1ncc(-n2cc(Br)cn2)cn1)c1ncccc1C(F)(F)F [Compound 180],2* %
4,O=C(NCCc1ncc(-n2ccc(Cl)n2)cn1)c1ncccc1C(F)(F)F [Compound 181],20* %
5,Cc1cnn(-c2cnc(CCNC(=O)c3ncccc3C(F)(F)F)nc2)c1 [Compound 182],9* %
6,O=C(Nc1ccccc1-c1cnc(-n2ccc(C(F)(F)F)n2)c(Cl)c1)c1cccs1 [compound 111],63* %

# Tested on: Puccinia recondite f. sp. tritici
# Experiment: Test D: preventive spray on wheat seedlings, Puccinia recondite f. sp. tritici (wheat leaf rust), visual disease rating
# Type: in vivo
# Details: 100 = 100% disease control, 0 = no control, unmarked values
# Source text: as §1
# as §3, with “Puccinia recondite f. sp. tritici;” for “Septoria tritici”, “rust)” for “blotch)”, “20°” for “24°”, “24” for “48”, “6” for “21”
# as §2
row,SMILES,Test D disease control rating [%]
1,CCOC(=O)C1(C)CC(c2ccc(-c3ccccc3NC(=O)c3ncccc3C(F)(F)F)cn2)=NO1 (racemic) [compound 144],68
2,CCOC(=O)C1CC(c2ccc(-c3ccccc3NC(=O)c3ncccc3C(F)(F)F)cn2)=NO1 (racemic) [compound 145],0
3,CC1(C(=O)O)CC(c2ccc(-c3ccccc3NC(=O)c3ncccc3C(F)(F)F)cn2)=NO1 (racemic) [compound 146],0
4,O=C(NCCc1ncc(-n2ccc(C(F)(F)F)n2)cn1)c1ccccc1C(F)(F)F [Compound 177],0
5,O=C(Nc1ccccc1-c1ccc(-n2cccn2)nc1)c1ncccc1C(F)(F)F [compound 12],99
6,O=C(Nc1ccccc1-c1ccc(-n2cc(Br)cn2)nc1)c1ncccc1C(F)(F)F [compound 14],99
7,Cn1cc(C(=O)Nc2ccccc2-c2ccc(-n3cccn3)nc2)c(C(F)F)n1 [compound 15],100
8,COc1cccc(-c2cnn(-c3ccc(-c4ccccc4NC(=O)c4ncccc4C(F)(F)F)cn3)c2)c1 [compound 16],99
9,COc1cccc(C2CC(c3ccc(-c4ccccc4NC(=O)c4cn(C)nc4C(F)F)cn3)=NO2)c1 (centres unmarked) [compound 102],100
10,CCOC(=O)C1(C)CC(c2ccc(-c3ccccc3NC(=O)c3cn(C)nc3C(F)F)cn2)=NO1 (centres unmarked) [compound 109],74
11,CCOC(=O)C1CC(c2ccc(-c3ccccc3NC(=O)c3cn(C)nc3C(F)F)cn2)=NO1 (centres unmarked) [compound 110],68
12,CC1=C(C(=O)Nc2ccccc2-c2cnc(-n3ccc(C(F)(F)F)n3)c(F)c2)SCCO1 [compound 113],97

# Same assay, conditions: values marked with asterisk (*), meaning not given
row,SMILES,Test D disease control rating
1,Cc1ccn(-c2cnc(CCNC(=O)c3ncccc3C(F)(F)F)nc2)n1 [Compound 178],0* %
2,O=C(NCCc1ncc(-n2ccc(Br)n2)cn1)c1ncccc1C(F)(F)F [Compound 179],0* %
3,O=C(NCCc1ncc(-n2cc(Br)cn2)cn1)c1ncccc1C(F)(F)F [Compound 180],0* %
4,O=C(NCCc1ncc(-n2ccc(Cl)n2)cn1)c1ncccc1C(F)(F)F [Compound 181],9* %
5,Cc1cnn(-c2cnc(CCNC(=O)c3ncccc3C(F)(F)F)nc2)c1 [Compound 182],0* %
6,O=C(Nc1ccccc1-c1cnc(-n2ccc(C(F)(F)F)n2)c(Cl)c1)c1cccs1 [compound 111],84* %

# Tested on: Erysiphe graminis f. sp. tritici
# Experiment: Test E: preventive spray on wheat seedlings, Erysiphe graminis f. sp. tritici (wheat powdery mildew), visual disease rating
# Type: in vivo
# Details: 100 = 100% disease control, 0 = no control, unmarked values
# Source text: as §1
# The test suspension was sprayed to the point of run-off on wheat seedlings. The following day the seedlings were inoculated with a spore dust of Erysiphe graminis f. sp. tritici, (the causal agent of wheat powdery mildew) and incubated in a growth chamber at 20° C. for 8 days, after which time visual disease ratings were made.
# as §2
row,SMILES,Test E disease control rating [%]
1,CCOC(=O)C1(C)CC(c2ccc(-c3ccccc3NC(=O)c3ncccc3C(F)(F)F)cn2)=NO1 (racemic) [compound 144],0
2,CCOC(=O)C1CC(c2ccc(-c3ccccc3NC(=O)c3ncccc3C(F)(F)F)cn2)=NO1 (racemic) [compound 145],0
3,CC1(C(=O)O)CC(c2ccc(-c3ccccc3NC(=O)c3ncccc3C(F)(F)F)cn2)=NO1 (racemic) [compound 146],0
4,O=C(NCCc1ncc(-n2ccc(C(F)(F)F)n2)cn1)c1ccccc1C(F)(F)F [Compound 177],79
5,O=C(Nc1ccccc1-c1ccc(-n2cccn2)nc1)c1ncccc1C(F)(F)F [compound 12],98
6,O=C(Nc1ccccc1-c1ccc(-n2cc(Br)cn2)nc1)c1ncccc1C(F)(F)F [compound 14],98
7,Cn1cc(C(=O)Nc2ccccc2-c2ccc(-n3cccn3)nc2)c(C(F)F)n1 [compound 15],97
8,COc1cccc(-c2cnn(-c3ccc(-c4ccccc4NC(=O)c4ncccc4C(F)(F)F)cn3)c2)c1 [compound 16],69
9,COc1cccc(C2CC(c3ccc(-c4ccccc4NC(=O)c4cn(C)nc4C(F)F)cn3)=NO2)c1 (centres unmarked) [compound 102],73
10,CCOC(=O)C1(C)CC(c2ccc(-c3ccccc3NC(=O)c3cn(C)nc3C(F)F)cn2)=NO1 (centres unmarked) [compound 109],0
11,CCOC(=O)C1CC(c2ccc(-c3ccccc3NC(=O)c3cn(C)nc3C(F)F)cn2)=NO1 (centres unmarked) [compound 110],0
12,CC1=C(C(=O)Nc2ccccc2-c2cnc(-n3ccc(C(F)(F)F)n3)c(F)c2)SCCO1 [compound 113],0

# Same assay, conditions: values marked with asterisk (*), meaning not given
row,SMILES,Test E disease control rating
1,Cc1ccn(-c2cnc(CCNC(=O)c3ncccc3C(F)(F)F)nc2)n1 [Compound 178],0* %
2,O=C(NCCc1ncc(-n2ccc(Br)n2)cn1)c1ncccc1C(F)(F)F [Compound 179],0* %
3,O=C(NCCc1ncc(-n2cc(Br)cn2)cn1)c1ncccc1C(F)(F)F [Compound 180],0* %
4,O=C(NCCc1ncc(-n2ccc(Cl)n2)cn1)c1ncccc1C(F)(F)F [Compound 181],0* %
5,Cc1cnn(-c2cnc(CCNC(=O)c3ncccc3C(F)(F)F)nc2)c1 [Compound 182],0* %
6,O=C(Nc1ccccc1-c1cnc(-n2ccc(C(F)(F)F)n2)c(Cl)c1)c1cccs1 [compound 111],0* %
